Assay results taken from ChEMBL document CHEMBL3991601, “The target landscape of clinical kinase drugs” (Science, 2017).
Activity calls are given as the source filed them.

Legend:
[1] = molecular target: Cell division cycle 7-related protein kinase (Homo sapiens, UniProt O00311)
[2] = molecular target: Cyclin-dependent kinase 17 (Homo sapiens, UniProt Q00537)
[3] = molecular target: T1, Cyclin-dependent kinase-like 5 (Homo sapiens, UniProt O76039)
T1 sequence (O76039 whole entry): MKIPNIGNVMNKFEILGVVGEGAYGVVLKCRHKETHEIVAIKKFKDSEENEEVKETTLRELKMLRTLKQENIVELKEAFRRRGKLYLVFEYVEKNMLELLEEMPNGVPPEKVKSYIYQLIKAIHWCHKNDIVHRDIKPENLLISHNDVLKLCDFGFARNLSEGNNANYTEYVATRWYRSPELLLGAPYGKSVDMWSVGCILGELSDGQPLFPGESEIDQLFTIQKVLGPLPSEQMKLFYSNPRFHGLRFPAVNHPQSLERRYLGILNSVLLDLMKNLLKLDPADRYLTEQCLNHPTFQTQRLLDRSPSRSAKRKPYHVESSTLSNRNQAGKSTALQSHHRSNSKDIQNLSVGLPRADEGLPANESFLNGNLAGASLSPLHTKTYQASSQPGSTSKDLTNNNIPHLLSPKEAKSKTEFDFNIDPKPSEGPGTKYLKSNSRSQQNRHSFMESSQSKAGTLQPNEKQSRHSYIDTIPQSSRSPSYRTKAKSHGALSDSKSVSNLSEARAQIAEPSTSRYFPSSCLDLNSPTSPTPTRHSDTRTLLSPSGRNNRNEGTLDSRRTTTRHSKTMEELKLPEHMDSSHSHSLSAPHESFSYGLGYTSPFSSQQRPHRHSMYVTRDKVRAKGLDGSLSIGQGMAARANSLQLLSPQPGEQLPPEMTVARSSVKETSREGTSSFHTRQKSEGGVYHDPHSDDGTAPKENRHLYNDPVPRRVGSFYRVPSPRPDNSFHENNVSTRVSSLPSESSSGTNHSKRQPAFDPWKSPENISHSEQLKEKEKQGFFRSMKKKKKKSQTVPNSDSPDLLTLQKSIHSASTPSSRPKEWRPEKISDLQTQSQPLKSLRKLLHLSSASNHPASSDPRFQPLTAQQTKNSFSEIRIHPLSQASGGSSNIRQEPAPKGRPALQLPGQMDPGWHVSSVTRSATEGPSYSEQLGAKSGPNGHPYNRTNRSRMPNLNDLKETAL

Misshapen-like kinase 1 = Misshapen-like kinase 1 (Homo sapiens, UniProt Q8N4C8)
[4] = molecular target: Serine/threonine-protein kinase PAK 6 (Homo sapiens, UniProt Q9NQU5)
[5] = molecular target: Choline-phosphate cytidylyltransferase A (Homo sapiens, UniProt P49585)
[6] = molecular target: Membrane-associated progesterone receptor component 1 (Homo sapiens, UniProt O00264)
[7] = molecular target: T2, Protein kinase C zeta type (Homo sapiens, UniProt Q05513)
T2 sequence (Q05513 whole entry): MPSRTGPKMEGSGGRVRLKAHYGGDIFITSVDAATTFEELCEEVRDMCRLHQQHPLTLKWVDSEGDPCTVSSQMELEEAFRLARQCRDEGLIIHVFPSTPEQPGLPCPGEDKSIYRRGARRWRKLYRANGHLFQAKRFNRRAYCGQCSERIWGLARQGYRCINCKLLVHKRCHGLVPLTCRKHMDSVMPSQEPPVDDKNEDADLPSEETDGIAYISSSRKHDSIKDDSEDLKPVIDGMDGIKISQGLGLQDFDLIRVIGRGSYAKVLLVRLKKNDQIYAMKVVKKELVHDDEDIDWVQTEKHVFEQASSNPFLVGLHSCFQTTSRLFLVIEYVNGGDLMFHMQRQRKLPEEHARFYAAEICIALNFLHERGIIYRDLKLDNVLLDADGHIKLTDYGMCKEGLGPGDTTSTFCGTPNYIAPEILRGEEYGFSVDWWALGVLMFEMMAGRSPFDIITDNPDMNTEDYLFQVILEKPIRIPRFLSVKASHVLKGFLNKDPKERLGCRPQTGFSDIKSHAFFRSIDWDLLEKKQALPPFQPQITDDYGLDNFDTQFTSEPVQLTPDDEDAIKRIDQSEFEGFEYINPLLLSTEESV

[8] = molecular target: Serine/threonine-protein kinase 24 (Homo sapiens, UniProt Q9Y6E0)
[9] = molecular target: T3, Dual specificity protein kinase TTK (Homo sapiens, UniProt P33981)
T3 sequence (P33981 whole entry): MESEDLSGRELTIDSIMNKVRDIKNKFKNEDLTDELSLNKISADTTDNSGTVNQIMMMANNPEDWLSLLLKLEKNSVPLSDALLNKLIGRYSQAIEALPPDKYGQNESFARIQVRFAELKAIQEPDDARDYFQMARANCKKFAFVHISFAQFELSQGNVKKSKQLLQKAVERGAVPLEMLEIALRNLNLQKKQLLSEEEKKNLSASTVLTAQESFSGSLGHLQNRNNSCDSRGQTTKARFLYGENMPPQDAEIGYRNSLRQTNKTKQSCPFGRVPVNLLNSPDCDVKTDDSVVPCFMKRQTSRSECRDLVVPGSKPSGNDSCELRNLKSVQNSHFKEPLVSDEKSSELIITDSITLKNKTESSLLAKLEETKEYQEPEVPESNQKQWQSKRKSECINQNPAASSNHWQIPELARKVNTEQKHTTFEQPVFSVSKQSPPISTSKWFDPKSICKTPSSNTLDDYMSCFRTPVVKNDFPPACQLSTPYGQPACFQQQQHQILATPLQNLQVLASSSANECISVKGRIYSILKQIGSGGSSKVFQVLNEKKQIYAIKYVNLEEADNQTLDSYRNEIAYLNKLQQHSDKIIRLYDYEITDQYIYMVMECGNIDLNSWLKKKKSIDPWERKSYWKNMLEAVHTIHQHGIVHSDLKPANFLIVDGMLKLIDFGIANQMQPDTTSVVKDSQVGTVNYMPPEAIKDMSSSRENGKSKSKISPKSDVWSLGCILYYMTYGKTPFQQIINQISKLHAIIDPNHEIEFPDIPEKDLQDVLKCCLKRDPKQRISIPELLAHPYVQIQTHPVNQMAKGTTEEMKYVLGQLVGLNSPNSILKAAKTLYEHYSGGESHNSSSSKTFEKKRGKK

[10] = molecular target: Mitogen-activated protein kinase 14 (Homo sapiens, UniProt Q16539)
[11] = molecular target: Hepatocyte growth factor receptor (Homo sapiens, UniProt P08581)
[12] = molecular target: Protein kinase C theta type (Homo sapiens, UniProt Q04759)

Measured: Kd
Note: in the data inactive means no Kd found up to 30 µM.

Chain of Protein kinase C theta type (Q04759 whole entry): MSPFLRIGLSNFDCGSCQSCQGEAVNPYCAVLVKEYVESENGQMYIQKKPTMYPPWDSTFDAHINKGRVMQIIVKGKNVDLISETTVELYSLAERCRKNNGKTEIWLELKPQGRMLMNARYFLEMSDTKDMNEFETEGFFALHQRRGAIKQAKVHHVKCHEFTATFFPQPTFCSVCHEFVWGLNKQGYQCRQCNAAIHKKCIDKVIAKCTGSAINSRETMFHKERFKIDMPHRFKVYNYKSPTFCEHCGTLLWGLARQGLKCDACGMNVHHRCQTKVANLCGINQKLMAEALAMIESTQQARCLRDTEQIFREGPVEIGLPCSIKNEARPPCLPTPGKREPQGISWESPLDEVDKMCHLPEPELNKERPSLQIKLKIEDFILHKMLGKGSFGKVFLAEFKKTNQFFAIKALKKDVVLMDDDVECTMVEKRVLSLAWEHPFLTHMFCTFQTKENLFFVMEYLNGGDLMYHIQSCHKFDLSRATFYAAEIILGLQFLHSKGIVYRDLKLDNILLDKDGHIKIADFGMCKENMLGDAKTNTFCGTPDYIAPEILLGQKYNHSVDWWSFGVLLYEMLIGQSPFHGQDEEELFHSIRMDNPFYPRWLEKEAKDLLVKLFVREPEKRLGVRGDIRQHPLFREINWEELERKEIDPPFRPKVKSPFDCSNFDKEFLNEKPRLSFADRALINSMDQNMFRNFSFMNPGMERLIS
Chain of Cell division cycle 7-related protein kinase (O00311 whole entry): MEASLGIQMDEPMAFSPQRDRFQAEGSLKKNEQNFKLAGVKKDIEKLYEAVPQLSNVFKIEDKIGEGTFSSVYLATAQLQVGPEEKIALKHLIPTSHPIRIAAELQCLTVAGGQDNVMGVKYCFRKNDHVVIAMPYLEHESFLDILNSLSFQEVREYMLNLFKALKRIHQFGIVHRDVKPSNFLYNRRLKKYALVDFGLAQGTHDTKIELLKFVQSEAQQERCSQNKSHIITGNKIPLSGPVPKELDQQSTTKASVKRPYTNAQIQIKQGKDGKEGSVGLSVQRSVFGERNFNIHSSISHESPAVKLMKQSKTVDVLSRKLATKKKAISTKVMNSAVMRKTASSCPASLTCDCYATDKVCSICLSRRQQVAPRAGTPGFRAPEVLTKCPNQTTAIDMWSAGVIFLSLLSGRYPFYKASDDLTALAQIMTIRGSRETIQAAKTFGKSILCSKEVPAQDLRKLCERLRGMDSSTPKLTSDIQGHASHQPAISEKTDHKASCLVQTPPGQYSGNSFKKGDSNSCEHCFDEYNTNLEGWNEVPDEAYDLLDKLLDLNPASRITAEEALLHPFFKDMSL
Chain of Serine/threonine-protein kinase PAK 6 (Q9NQU5 whole entry): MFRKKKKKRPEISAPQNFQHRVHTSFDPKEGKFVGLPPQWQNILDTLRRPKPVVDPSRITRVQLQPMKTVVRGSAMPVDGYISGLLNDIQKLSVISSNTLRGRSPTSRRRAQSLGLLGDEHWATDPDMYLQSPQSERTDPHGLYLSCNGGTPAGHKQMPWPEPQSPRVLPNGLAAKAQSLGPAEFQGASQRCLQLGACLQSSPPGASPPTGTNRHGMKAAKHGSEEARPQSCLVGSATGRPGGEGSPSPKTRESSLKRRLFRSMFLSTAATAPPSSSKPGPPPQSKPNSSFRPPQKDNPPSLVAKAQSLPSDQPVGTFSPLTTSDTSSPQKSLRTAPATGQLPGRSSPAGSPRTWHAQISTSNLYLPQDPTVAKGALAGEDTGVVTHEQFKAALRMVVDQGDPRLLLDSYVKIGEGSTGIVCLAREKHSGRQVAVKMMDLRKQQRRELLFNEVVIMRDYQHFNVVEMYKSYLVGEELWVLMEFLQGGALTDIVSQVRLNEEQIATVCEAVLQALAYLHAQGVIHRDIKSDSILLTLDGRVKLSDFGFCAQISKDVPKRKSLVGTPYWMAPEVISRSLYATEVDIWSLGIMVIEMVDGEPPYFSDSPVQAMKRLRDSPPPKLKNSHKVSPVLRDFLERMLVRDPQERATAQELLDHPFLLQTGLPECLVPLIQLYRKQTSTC
Chain of Cyclin-dependent kinase 17 (Q00537 whole entry): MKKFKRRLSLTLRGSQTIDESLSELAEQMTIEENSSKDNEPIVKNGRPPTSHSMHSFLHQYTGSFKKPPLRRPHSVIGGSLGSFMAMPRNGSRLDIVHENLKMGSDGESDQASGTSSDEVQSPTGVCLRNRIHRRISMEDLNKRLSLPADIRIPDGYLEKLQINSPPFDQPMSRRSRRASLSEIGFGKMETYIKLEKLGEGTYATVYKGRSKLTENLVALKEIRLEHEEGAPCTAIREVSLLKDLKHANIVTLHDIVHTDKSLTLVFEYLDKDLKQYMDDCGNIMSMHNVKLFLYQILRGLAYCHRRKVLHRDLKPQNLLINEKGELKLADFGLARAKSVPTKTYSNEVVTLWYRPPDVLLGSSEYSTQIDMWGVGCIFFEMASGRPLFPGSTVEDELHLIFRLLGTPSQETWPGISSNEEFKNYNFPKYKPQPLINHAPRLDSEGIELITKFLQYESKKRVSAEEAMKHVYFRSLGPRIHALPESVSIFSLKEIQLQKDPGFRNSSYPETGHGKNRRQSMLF
Chain of Mitogen-activated protein kinase 14 (Q16539 whole entry): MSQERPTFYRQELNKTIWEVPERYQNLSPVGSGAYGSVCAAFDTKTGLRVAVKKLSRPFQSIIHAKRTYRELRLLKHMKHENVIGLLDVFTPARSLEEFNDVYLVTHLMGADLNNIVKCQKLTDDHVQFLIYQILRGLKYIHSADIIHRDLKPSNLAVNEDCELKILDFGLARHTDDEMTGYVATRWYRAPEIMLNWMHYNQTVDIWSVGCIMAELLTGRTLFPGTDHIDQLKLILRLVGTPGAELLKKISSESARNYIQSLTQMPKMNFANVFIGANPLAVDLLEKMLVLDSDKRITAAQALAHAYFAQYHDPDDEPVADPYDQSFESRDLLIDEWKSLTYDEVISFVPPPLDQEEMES
Chain of Choline-phosphate cytidylyltransferase A (P49585 whole entry): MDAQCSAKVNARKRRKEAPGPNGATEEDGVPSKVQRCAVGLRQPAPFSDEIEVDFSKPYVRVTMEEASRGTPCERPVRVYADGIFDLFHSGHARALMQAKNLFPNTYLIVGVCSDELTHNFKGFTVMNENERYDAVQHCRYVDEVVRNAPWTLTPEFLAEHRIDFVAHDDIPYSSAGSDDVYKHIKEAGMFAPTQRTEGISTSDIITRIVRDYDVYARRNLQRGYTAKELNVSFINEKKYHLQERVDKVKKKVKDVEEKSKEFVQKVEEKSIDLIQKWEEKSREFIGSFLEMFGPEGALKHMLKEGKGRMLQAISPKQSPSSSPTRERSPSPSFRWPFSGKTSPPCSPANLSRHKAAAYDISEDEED
Chain of Membrane-associated progesterone receptor component 1 (O00264 whole entry): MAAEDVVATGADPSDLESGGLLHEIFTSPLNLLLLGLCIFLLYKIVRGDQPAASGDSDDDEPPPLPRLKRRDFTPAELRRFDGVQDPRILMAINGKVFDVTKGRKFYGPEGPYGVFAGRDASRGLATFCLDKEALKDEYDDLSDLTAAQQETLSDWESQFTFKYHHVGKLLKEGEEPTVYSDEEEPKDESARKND
Chain of Misshapen-like kinase 1 (Q8N4C8 whole entry): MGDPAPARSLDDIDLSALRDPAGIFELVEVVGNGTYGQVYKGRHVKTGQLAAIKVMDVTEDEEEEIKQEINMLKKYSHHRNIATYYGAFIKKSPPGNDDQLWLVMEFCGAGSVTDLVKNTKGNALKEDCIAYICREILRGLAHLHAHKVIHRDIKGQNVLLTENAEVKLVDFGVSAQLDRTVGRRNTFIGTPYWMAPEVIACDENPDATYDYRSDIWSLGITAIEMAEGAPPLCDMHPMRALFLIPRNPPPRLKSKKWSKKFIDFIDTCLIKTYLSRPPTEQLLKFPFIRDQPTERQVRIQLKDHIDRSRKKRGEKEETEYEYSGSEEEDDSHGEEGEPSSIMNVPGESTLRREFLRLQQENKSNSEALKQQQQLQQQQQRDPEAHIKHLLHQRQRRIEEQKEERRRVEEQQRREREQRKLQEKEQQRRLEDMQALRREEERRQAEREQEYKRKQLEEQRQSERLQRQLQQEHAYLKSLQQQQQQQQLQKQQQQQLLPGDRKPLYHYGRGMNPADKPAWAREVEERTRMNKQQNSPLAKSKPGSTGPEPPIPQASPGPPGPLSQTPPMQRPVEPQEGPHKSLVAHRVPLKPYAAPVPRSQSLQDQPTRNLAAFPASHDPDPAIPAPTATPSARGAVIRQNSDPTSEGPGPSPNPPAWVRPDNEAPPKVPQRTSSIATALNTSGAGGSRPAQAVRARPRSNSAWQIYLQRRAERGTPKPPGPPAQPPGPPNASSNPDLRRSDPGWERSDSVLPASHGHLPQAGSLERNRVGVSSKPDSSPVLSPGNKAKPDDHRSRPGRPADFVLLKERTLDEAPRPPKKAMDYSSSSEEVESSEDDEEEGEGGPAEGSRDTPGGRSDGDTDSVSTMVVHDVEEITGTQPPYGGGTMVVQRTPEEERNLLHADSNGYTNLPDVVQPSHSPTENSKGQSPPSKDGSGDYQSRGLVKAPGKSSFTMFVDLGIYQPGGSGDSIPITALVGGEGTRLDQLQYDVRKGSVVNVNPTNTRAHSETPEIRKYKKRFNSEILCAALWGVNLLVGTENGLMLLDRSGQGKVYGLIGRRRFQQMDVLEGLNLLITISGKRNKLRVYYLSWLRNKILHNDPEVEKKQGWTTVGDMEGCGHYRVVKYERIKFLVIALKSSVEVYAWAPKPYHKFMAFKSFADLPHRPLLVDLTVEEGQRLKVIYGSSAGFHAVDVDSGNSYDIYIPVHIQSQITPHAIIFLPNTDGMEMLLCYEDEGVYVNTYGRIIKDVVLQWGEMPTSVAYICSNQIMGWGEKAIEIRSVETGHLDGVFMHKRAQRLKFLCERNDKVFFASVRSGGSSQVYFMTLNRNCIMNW

OCCn1cc(-c2cnc3nnn(Cc4ccc5ncccc5c4)c3n2)cn1 [PF-04217903]
inactive: [1] > 30 µM | [2] > 30 µM | [3] > 30 µM | Misshapen-like kinase 1 > 30 µM | [4] > 30 µM | [5] > 30 µM | [6] > 30 µM | [7] > 30 µM | [8] > 30 µM | [9] > 30 µM

CC(=O)Nc1cccc(-n2c(=O)n(C3CC3)c(=O)c3c(Nc4ccc(I)cc4F)n(C)c(=O)c(C)c32)c1 [TRAMETINIB]
inactive: [1] > 30 µM | [2] > 30 µM | [3] > 30 µM | [10] > 30 µM | [11] > 30 µM | Misshapen-like kinase 1 > 30 µM | [4] > 30 µM | [5] > 30 µM | [6] > 30 µM | [12] > 30 µM | [7] > 30 µM | [8] > 30 µM | [9] > 30 µM

CNC(=O)CN1CCC(Oc2cc3c(Nc4cccc(Cl)c4F)ncnc3cc2OC)CC1 [SAPITINIB]
inactive: [1] > 30 µM | [2] > 30 µM | [3] > 30 µM | [10] > 30 µM | [11] > 30 µM | Misshapen-like kinase 1 > 30 µM | [4] > 30 µM | [5] > 30 µM | [6] > 30 µM | [12] > 30 µM | [7] > 30 µM | [8] > 30 µM | [9] > 30 µM

CN1CCC(CNc2ccc3ncc(-c4cccc(OC(F)(F)F)c4)n3n2)CC1 [SGI-1776]
inactive: [1] > 30 µM | [2] > 30 µM | [3] > 30 µM | [10] > 30 µM | [11] > 30 µM | Misshapen-like kinase 1 > 30 µM | [4] > 30 µM | [5] > 30 µM | [12] > 30 µM | [7] > 30 µM | [8] > 30 µM | [9] > 30 µM
